One test relates to U-937. The test is described as follows: Antiproliferative against human U937 cells incubated for 72 hrs by MTT assay. To be noted: U-937, 72 h. It is filed as functional, cell-based. (Tetrazolium assays rely on reduction of a dye to a coloured formazan, in cell work by metabolically active cells.)
A further test has as its system K562. Kind of test: Antiproliferative against human K562 cells incubated for 72 hrs by MTT assay. It is filed as functional, cell-based. To be noted: K562, 72 h.
For test [1], the system named is CCRF-CEM. The test is described as follows: Antiproliferative against human CCRF-CEM cells incubated for 72 hrs by MTT assay. Type of test: functional, cell-based.
Test [2] has as its target DNA topoisomerase II (Homo sapiens) (UniProt P11388+Q02880). Kind of test: Inhibition of DNA topoisomerase-2 (unknown origin) at 100 uM relative to control. Type of test: protein assay.
For test [3], the system named is CCRF-CEM. Kind of test: Induction of apoptosis in human CCRF-CEM cells at 0.5 to 2 uM incubated for 48 hrs by Annexin V-FITC/PI staining based fluorescence based assay. It is filed as functional, cell-based.
The target of test [4] is T1, DNA topoisomerase 1 (Homo sapiens) (UniProt P11387).
T1 sequence (whole entry): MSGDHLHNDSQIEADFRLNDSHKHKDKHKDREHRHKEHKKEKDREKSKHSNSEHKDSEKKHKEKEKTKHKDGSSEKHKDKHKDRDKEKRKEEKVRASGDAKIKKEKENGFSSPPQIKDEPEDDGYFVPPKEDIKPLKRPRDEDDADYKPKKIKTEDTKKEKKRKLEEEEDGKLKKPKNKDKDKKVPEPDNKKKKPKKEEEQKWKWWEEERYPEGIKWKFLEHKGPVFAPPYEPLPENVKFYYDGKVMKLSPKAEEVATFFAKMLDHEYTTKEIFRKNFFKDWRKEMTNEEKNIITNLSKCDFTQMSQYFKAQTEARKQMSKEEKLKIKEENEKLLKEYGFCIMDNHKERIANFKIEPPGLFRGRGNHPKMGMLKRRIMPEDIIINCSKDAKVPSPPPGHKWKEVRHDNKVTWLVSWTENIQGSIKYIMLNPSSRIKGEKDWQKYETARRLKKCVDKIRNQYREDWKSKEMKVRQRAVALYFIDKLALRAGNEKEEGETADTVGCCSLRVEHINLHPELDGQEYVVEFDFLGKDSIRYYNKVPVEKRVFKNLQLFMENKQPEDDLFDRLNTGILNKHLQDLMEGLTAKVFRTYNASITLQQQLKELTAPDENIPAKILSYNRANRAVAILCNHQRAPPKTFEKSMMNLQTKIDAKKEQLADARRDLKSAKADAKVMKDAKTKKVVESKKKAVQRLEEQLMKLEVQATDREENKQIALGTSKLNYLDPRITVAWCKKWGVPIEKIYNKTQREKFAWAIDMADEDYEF
Kind of test: Inhibition of DNA topoisomerase-1 (unknown origin) at 100 uM relative to control.

Test [5] concerns CCRF-CEM. The test is described as follows: Induction of apoptosis in human CCRF-CEM cells assessed as increase in early apoptotic cells at 0.5 uM incubated for 48 hrs by Annexin V-FITC/PI staining based fluorescence based assay. It is filed as functional, cell-based.
For test [6], the system named is CCRF-CEM. The test is described as follows: Induction of apoptosis in human CCRF-CEM cells assessed as increase in late apoptotic cells incubated for 48 hrs by Annexin V-FITC/PI staining based fluorescence based assay. Type of test: functional, cell-based.
Test [7] relates to CCRF-CEM. Kind of test: Induction of DNA damage in human CCRF-CEM cells assessed as increase in gammaH2AX incubated for 48 hrs by Western blot analysis. It is filed as functional, cell-based.
The subject of test [8] is CCRF-CEM. Kind of test: Induction of apoptosis in human CCRF-CEM cells assessed as increase in early apoptotic cells at 2 uM incubated for 48 hrs by Annexin V-FITC/PI staining based fluorescence based assay. It is filed as functional, cell-based.
Test [9] relates to CCRF-CEM. Kind of test: Induction of apoptosis in human CCRF-CEM cells assessed as increase in necrotic cells incubated for 48 hrs by Annexin V-FITC/PI staining based fluorescence based assay. Type of test: functional, cell-based.
The subject of test [10] is CCRF-CEM. Kind of test: Induction of apoptosis in human CCRF-CEM cells at 0.5 to 2 uM incubated for 48 hrs by Hoechst 33342/PI staining based fluorescence based assay. It is filed as functional, cell-based.

For orientation: IC50 means the concentration needed to halve the response being measured. For orientation: inhibition means the percentage by which the read-out fell short of the control.

The source made the active and inactive calls. The rule behind the calls is not given here.

Regarding `COc1cccc2c(NCc3ccc(C(=O)Nc4ccccc4)cc3)c3ccccc3nc12`, the IC50 in the test on U-937 came to 230 nM; in the test with K562, 1430 nM; in the test on CCRF-CEM [1], 890 nM.

`COc1ccc2c(NCc3ccc(C(=O)Nc4ccccc4)cc3)c3ccccc3nc2c1`: the IC50 stood at 1420 nM in the test on U-937, 1320 nM in the test with K562 and 900 nM in the test on CCRF-CEM [1].

In test [2], `COc1cc([C@@H]2c3cc4c(cc3[C@@H](O[C@@H]3O[C@@H]5CO[C@@H](C)O[C@H]5[C@H](O)[C@H]3O)[C@H]3COC(=O)[C@H]23)OCO4)cc(OC)c1O` came in with an inhibition of 40.9%.

With `COc1cc(NS(C)(=O)=O)ccc1Nc1c2ccccc2nc2ccccc12` [AMSACRINE], the IC50 in the test with U-937 was 80 nM; in the test with K562, 710 nM; in the test on CCRF-CEM [1], 30 nM.

As to `COc1ccc2nc3cc(Cl)ccc3c(NCc3ccc(C(=O)Nc4ccccc4)cc3)c2c1`, the figures for the IC50 with U-937, in the test on K562 and with CCRF-CEM [1] were 1800 nM, 2370 nM and 1300 nM, respectively.

Take `NCc1ccc(C(=O)Nc2ccccc2)cc1`: the IC50 in the test with U-937, with K562 and in the test with CCRF-CEM [1] was more than 10000 nM throughout.

With `O=C(Nc1ccccc1)c1ccc(CNc2c3ccccc3nc3ccccc23)cc1`, the results for the IC50 in the test with U-937, in the test on K562 and in the test on CCRF-CEM [1] were 1320 nM, 1550 nM and 1560 nM, respectively. Further, the result in the test with CCRF-CEM [3] was Active. Further, the inhibition in [4] turned out to be 44.9%; in test [2], 24%.

Consider `COc1ccc2nc3cc(Cl)ccc3c(Cl)c2c1`, for which the IC50 in the test on U-937, with K562 and with CCRF-CEM [1] was more than 10000 nM in each case.

For `COc1ccccc1NC(=O)c1ccc(CNc2c3ccccc3nc3ccccc23)cc1`, the values for the IC50 in the test on U-937, with K562 and in the test on CCRF-CEM [1] were 1490 nM, 910 nM and 1280 nM, respectively.

In the case of `COc1ccc2nc3ccccc3c(NCc3ccc(C(=O)Nc4ccccc4)cc3)c2c1`, the results for the IC50 in the test with U-937, with K562 and with CCRF-CEM [1] were 330 nM, 1240 nM and 820 nM, respectively. Also, the outcome in the test on CCRF-CEM [5], in the test with CCRF-CEM [8] and with CCRF-CEM [10] was Active. The Activity result with CCRF-CEM [6], in the test with CCRF-CEM [7] and in the test on CCRF-CEM [9] was “Dose-dependent effect” each time. Besides, the inhibition in test [4] stood at 7.2%; in test [2] it was 17.8%.

(Values after ChEMBL document CHEMBL4406876, “Design, synthesis and biological research of novel N-phenylbenzamide-4-methylamine acridine derivatives as potential topoisomerase I/II and apoptosis-inducing agents” (Bioorg Med Chem Lett, 2019).)
